The data set in a line: Molar enthalpy of transition or fusion. The conditions noted are these: Crystal; Adiabatic calorimetry.

The structures appear in SMILES notation. ± gives the expanded uncertainty stated by the source.

Take `C(#Cc1ccccc1)c1ccccc1` [1,2-diphenylethyne]: the “Molar enthalpy of transition or fusion” value was 5.029 ± 0.0454 kcal/mol.
